{"source": "patent US20240246984A1", "about": "“HETEROCYCLIC JAK INHIBITOR” (BEIJING INNOCARE PHARMA TECH CO., LTD., priority 2020, published 2024)", "key": {"[1]": {"target": "human recombinant JAK2 protein (Homo sapiens, UniProt O60674)", "experiment": "JAK2 activity inhibition assay (HTRF kinase detection)", "format": "biochemical", "settings": "2.5 μM ATP substrate solution", "procedure,_shortened": "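Human recombinant JAK2 (0.15 ng/μL working solution) preincubated with compound 15 min RT, then reacted 30 min RT with 2.5 μM ATP and 0.25 μM biotin-tyrosine peptide (substrate-mix levels) in buffer with 5 mM MgCl2, 1 mM DTT, 0.01% Brij35. HTRF 665/620 ratio read; no-enzyme wells = 100% inhibition; IC50 from curve fit.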"}, "[2]": {"target": "human recombinant TYK2 protein (Homo sapiens, UniProt P29597)", "experiment": "TYK2 activity inhibition assay (HTRF kinase detection)", "format": "biochemical", "settings": "11.25 μM ATP substrate solution", "procedure,_shortened": "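Compound preincubated 15 min at RT with TYK2 (0.25 ng/μL working solution), then substrate mix (11.25 μM ATP, 0.5 μM biotin-tyrosine kinase substrate as prepared) added for 40 min at RT. HTRF detection with Eu-antibody/streptavidin-XL665 read as 665/620 nm ratio. No-enzyme wells define 100% inhibition; IC50 from curve fit.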"}, "[3]": {"tested_on": "IL-12-induced IFN-γ secretion in NK92 cells", "experiment": "Inhibition of IL-12-induced IFN-γ secretion in NK92 cells (ELISA)", "format": "cell-based", "settings": "Homo sapiens, IL-12 stimulation, 24 hours, read-out: IC50 (NK92IL12/IFN-γ)", "experimental": "The effect of the compounds of the present invention on IFN-γ secretion in IL-12-induced NK92 cells was evaluated by an enzyme-linked immunosorbent assay (ELISA).\nThe assay principle was generally described below: IL-12R was mainly expressed in activated T-cells, NK cells (NK92 was an NK cell line), DC cells, and B-cells. When binding to IL-12, it activated the JAK2/TYK2 signal transduction pathway within NK cells and activated T lymphocytes, thereby inducing secretion of IFN-γ.\nThe compound was dissolved to 2.5 mM in DMSO, followed by a serial 4-fold dilution with DMSO to a minimum concentration of 0.31 μM. Each concentration was further diluted 50-fold with an FBS-free MEMα medium (Thermofisher. 12561-056).\nNK92 cells (Nanjing Cobioer, CBP60980) were cultured in a complete MEMα medium containing 12.5% FBS (Ausbian, VS500T), 12.5% horse serum (Thermofisher, 16050-122), 0.02 mM folic acid (Sigma, F8758), 0.2 mM inositol (Sigma, 17850), 0.55 mM β-mercaptoethanol (Thermofish, 21985-023), 200 U/mL IL-2 (R&D Systems, 202-1L), and 100 U/mL penicillin-streptomycin mixed liquor (ThermoFisher, 15140122). When covering 80-90% of the culture container surface, the cells were dispersed and plated on a 96-well plate (ThermoFisher, 167425) with 100,000 cells per well (80 μL of the complete MEMα medium without IL-2). The 96-well plate was then incubated overnight in a 37° C., 5% CO2 incubator.\nAfter overnight incubation, 10 μL of the compound and 10 μL of 50 ng/ml IL-12 (R &D Systems, 219-1L) were added to each well and mixed gently, and the 96-well plate was incubated in the 37° C., 5% CO2 incubator for additional 24 hours. The plate was centrifuged at 800 rpm for 10 minutes at room temperature and 50 μL of the supernatant from each well was transferred to another 96-well plate (Sigma, CLS3695) coated with anti-IFN-γ antibody. The amount of IFN-γ secretion was detected following the instruction from the Human IFN-γ DuoSet ELISA assay kit (R & D Systems, DY285B). In this assay, the group in which IL-12 and the test compound were replaced with the MEMα medium was the non-stimulated control group (100% inhibition), and the group with IL-12 and 0.2% DMSO was the stimulated control group (0% inhibition). The compound inhibition curve was plotted using XLfit software and the IC50 of its inhibition was calculated."}, "[4]": {"experiment": "Pharmacokinetic assay in mice (plasma and colon exposure)", "format": "in vivo", "settings": "fed female C57 mice, 25 mg/kg PO, 4 hours after dosing", "experimental": "Test compounds were formulated into a 5 mg/mL dosing sample (suspension or solution) in a 20% HP-β-CD vehicle.\n3 fed female C57 mice were each dosed 5 mL/kg by gavage (PO) at a dose of 25 mg/kg. Blood samples were collected 4 hours after dosing, and then animals were killed by CO2. Colons near the end of the rectum, approximately 4-6 cm in length, were dissected, rinsed with cold saline, blotted dry with absorbent paper, and weighed.\nConcentrations of the test compounds in the plasma and intestinal homogenate sample were quantified by LC-MS/MS using an API-4500 mass spectrometer with a plasma limit of quantitation (LOQ) of 1 ng/mL."}}}
{"smiles": "O=C(c1ccc(Nc2nc(-c3c(F)cccc3F)n3cc[nH]c(=O)c23)cc1)N1CCNCC1", "note": "[Compound 30, 3-(2,6-difluorophenyl)-1-((4-(piperazine-1-carbonyl)phenyl)amino)imidazo[1,5-a]pyrazin-8(7H)-one]", "values": [{"measurement": "IC50", "setting": "[1]", "value": 0.8, "unit": "nM"}, {"measurement": "IC50", "setting": "[2]", "value": 0.1, "unit": "nM"}, {"measurement": "IC50", "setting": "[3]", "value": 318, "unit": "nM"}, {"measurement": "Plasma exposure", "setting": "[4]; plasma, LOQ 1 ng/mL", "value": "BLOQ"}, {"measurement": "concentration at 4 h", "setting": "[4]; mouse, colon homogenate, read-out: Colon exposure", "value": 12200, "unit": "ng/g"}]}
